PubChem BioAssay (NCI)
Several values for one entry are separate records, joined by “and”; a condition that tells them apart may be missing. Equal entries are not always repeated.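 Step 1: Grow cells in 96-well plates. Step 2: Expose to compound for 48 hours at 5 concentrations. Step 3: Interpolate endpoints linearly; if unreached, use highest concentration. Here, GI50 denotes the concentration required for 50% inhibition of growth. TGI denotes the concentration required for complete inhibition of growth.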

Experiments:
Test in all cases: NCI anticancer screen, dose series, 48 h
UACC-257 melanoma = system: UACC-257 melanoma
BT-549 breast = system: BT-549 breast
786-0 renal = system: 786-0 renal
SK-MEL-5 melanoma = system: SK-MEL-5 melanoma
T-47D breast = system: T-47D breast
U251 CNS = system: U251 CNS
HCT-116 colon = system: HCT-116 colon
SW-620 colon = system: SW-620 colon
HOP-92 NSCLC = system: HOP-92 NSCLC
HT29 colon = system: HT29 colon

Row | SMILES | GI50 (UACC-257 melanoma) | TGI (UACC-257 melanoma) | GI50 (BT-549 breast) | TGI (BT-549 breast) | GI50 (786-0 renal) | TGI (786-0 renal) | GI50 (SK-MEL-5 melanoma) | TGI (SK-MEL-5 melanoma) | GI50 (T-47D breast) | TGI (T-47D breast) | GI50 (U251 CNS) | TGI (U251 CNS) | GI50 (HCT-116 colon) | TGI (HCT-116 colon) | GI50 (SW-620 colon) | TGI (SW-620 colon) | GI50 (HOP-92 NSCLC) | TGI (HOP-92 NSCLC) | GI50 (HT29 colon) | TGI (HT29 colon)
1 | O=C(CCCCCCN1CC(=O)N2[C@@H](c3ccc(Cl)c(Cl)c3)c3[nH]c4ccccc4c3C[C@H]2C1=O)NO | 3.81 µM | 18.2 µM | 4.41 µM | 14.2 µM | 4.63 µM | 9.39 µM | 4.73 µM | 9.29 µM | 1.58 µM | 25.2 µM | 2.78 µM | 8.25 µM | 1.47 µM | 6.92 µM | 1.97 µM | 9.3 µM | 1.59 µM | 7.41 µM | 2.93 µM | 9 µM
2 | Cc1cc(N=Nc2ccccc2C)ccc1N | 20.2 µM | 38 µM and 44.9 µM | – | 23.2 µM | 2.96 µM | 27 µM and 15.8 µM | 14.1 µM | 29.2 µM and 27.4 µM | 13.3 µM | 78.5 µM | – | 35.7 µM and 30.4 µM | 13.2 µM | 29.5 µM and 27.3 µM | 14.8 µM | 48.5 µM and 30.8 µM | 7.41 µM | 25.1 µM and 26.8 µM | – | 33.3 µM and 38.2 µM
3 | O=C(O)Cc1cccnc1 | – | > 100 µM | – | > 100 µM | – | > 100 µM | – | > 100 µM | – | > 100 µM | – | > 100 µM | – | > 100 µM | – | > 100 µM | – | > 100 µM | – | > 100 µM
4 | O=[N+]([O-])c1ccc(N2CCOCC2)c2c1no[n+]2[O-] | 2.76 µM | 10.7 µM | 1.64 µM | 6.25 µM | 2.12 µM | 6 µM | 1.41 µM | 3.34 µM | 1.14 µM | 4.58 µM | 0.984 µM | 2.32 µM | 0.965 µM | 2.24 µM | 1.18 µM | 2.48 µM | 0.923 µM | 5.62 µM | 1.04 µM | 2.8 µM
5 | O=C(/C=C/c1cccc(O)c1)c1cccc(-n2cc(-c3ccccc3)[nH]c2=O)c1 | 8.89 µM | 21.8 µM | 3.57 µM | 9.79 µM | 2.36 µM | – | 2.41 µM | 6.59 µM | 3.14 µM | 12.1 µM | 1.56 µM | 3.05 µM | 2.22 µM | – | 2.13 µM | 4.74 µM | 3.57 µM | 13.8 µM | 2.58 µM | > 20.6 µM
6 | Oc1c(I)cc(I)c2cccnc12 | 3.53 µM | 35.5 µM | 0.833 µM | 33.9 µM | 7.14 µM | 25.4 µM | 2.4 µM | 16.5 µM | 2.88 µM | 15.6 µM | 3.74 µM | 25.3 µM | 3.09 µM | 13.5 µM | 3.74 µM | > 100 µM | 8.48 µM | 83.3 µM | 8.91 µM | > 100 µM
7 | CSc1nc2sc3c(c2c(=O)n1-c1ccc(C(C)C)cc1)CCC(=O)C3 | 3.21 µM | 9.81 µM | 2.94 µM | 8.36 µM | 3.06 µM | 9.79 µM | 1.71 µM | 3.36 µM | 1.81 µM | 3.74 µM | 1.7 µM | 3.07 µM | 1.94 µM | 3.73 µM | 2.23 µM | 4.56 µM | 2.21 µM | 5.24 µM | 2.97 µM | 6.7 µM
8 | C=CCN1CC(=O)N2[C@@H](Cc3ccc(O)cc3F)C(=O)N(Cc3cccc(N4CC(N5CCN(CC)CC5)C4)n3)C[C@@H]2N1C(=O)NCc1ccccc1 | 0.0648 µM | 12.9 µM | 0.111 µM | > 54.1 µM | 0.173 µM | > 100 µM | 0.0703 µM | 0.33 µM | 0.0339 µM | > 100 µM | 0.0319 µM | > 100 µM | 0.0325 µM | > 100 µM | 0.107 µM | > 100 µM | 0.0217 µM | 0.0829 µM | 0.0537 µM | 16.2 µM
9 | Cn1cc(C2=C(c3cccc(OC[C@@H](O)CO)c3)C(=O)NC2=O)c2ccccc21 | > 25 µM | > 25 µM | 12.3 µM | > 25 µM | 14 µM | > 25 µM | > 8.72 µM | > 25 µM | > 22.9 µM | > 25 µM | > 15.5 µM | > 25 µM | > 15.8 µM | > 25 µM | > 20.1 µM | > 25 µM | > 25 µM | > 25 µM | > 25 µM | > 25 µM
10 | COC(=O)CCCCC(=O)c1c(C)[nH]c(/C=C2\N=C(c3ccc[nH]3)C=C2OC)c1C | 1.73 µM | 3.33 µM | 0.418 µM | 1.85 µM | 0.437 µM | 1.61 µM | 0.357 µM | 1.37 µM | 0.723 µM | 2.36 µM | 0.868 µM | 2.15 µM | 0.109 µM | – | 0.395 µM | 1.54 µM | 0.414 µM | 1.5 µM | 0.198 µM | 1.41 µM
11 | O=C(O)c1cccc(C(=O)O)c1S(=O)Cc1ccccc1 (centres undefined) | – | > 100 µM | – | > 100 µM | – | > 100 µM | – | > 100 µM | – | > 100 µM | – | > 100 µM | – | > 100 µM | – | > 100 µM | – | > 100 µM | – | > 100 µM
12 | Cc1cccc2c3c(sc12)C(c1ccc(Cl)cc1)C(C#N)=C(N)O3 (centres undefined) | 11.8 µM | 27.3 µM | 0.98 µM | 6.9 µM | 0.643 µM | 13.3 µM | 0.467 µM | 4.11 µM | 0.411 µM | 25.3 µM | 0.408 µM | 11 µM | 0.389 µM | 4.95 µM | 0.416 µM | 11.6 µM | 1.32 µM | 19 µM | 0.394 µM | 6.12 µM
13 | O=C1OC(C(O)CO)C(O)=C1O (centres undefined) | 1870 µM and > 3610 µM | 3730 µM and > 5150 µM | 2190 µM and 2510 µM | 4330 µM and > 5710 µM | 1790 µM and > 4300 µM | 3290 µM and > 5710 µM | 1560 µM and > 4190 µM | 2910 µM and > 5600 µM | 2080 µM and 2100 µM | 4800 µM and 4380 µM | 1910 µM and 1840 µM | 3400 µM and 3550 µM | 250 µM and 641 µM | 534 µM and 2110 µM | 191 µM and 189 µM | 408 µM and 412 µM | 2060 µM and > 10000 µM | 4480 µM and > 10000 µM | 2000 µM and 1870 µM | 4070 µM and 3750 µM
